Measured values reported in patent publication US11613552B2, “Pharmaceutical agents, compositions, and methods relating thereto” (Alltech, Inc., priority 2017, dated 2023).
Entries after “also recorded” stand apart in the source; their conditions may differ.

What was measured:
HepG2 cells = experiment: Glucose production assay in HepG2 cells; assay type: cell-based, human; conditions: for reduction in glucose production compared with 100 nM insulin / CDE / reduction in glucose production: 48 hr; for reduction in glucose production: serum-free
Experimental: Equal numbers of Human HepG2 or rat H4IIE cells (1-1.5×10^5 cells/well) were seeded on 96 well plates in 10% FBS-containing media for 24 hr. Cells were then washed twice with PBS, and treated with various concentrations of compounds, metformin or insulin in 100 μl of glucose production media (glucose-free, phenol red-free DMEM media supplemented with 20 mM sodium lactate, 2 mM sodium pyruvate and 5 mM HEPES) at 37° C. for 24 hr (H4IIE cells only) or 48 hr (HepG2 cell only). Cells were also incubated with 0.24% DMSO (the maximal volume of DMSO solvent used in the experiments).
After the above treatments, 50 μl of culture media were collected, and subjected to glucose analysis using Molecular Probes Amplex Red glucose assay kit (Cat #A22189) according to the manufacturer's protocol. Cell numbers or viability in the culture plate after the above compound treatments were determined using Promega's CellTiter96® AQueous One Solution Cell Proliferation Assay kits, according to the manufacturer's protocol and instructions. In brief, after removing 50 μl of culture media for glucose assay, cells were incubated with AQueous One solution (25 μl stock solution and 50 μl prewarmed PBS/per well) at 37° C. for 1 hour, and the absorbance of OD490 nm in each sample was determined by the Bio-Tek microplate reader. Cell viability in culture wells were determined by the subtraction of OD490 nm in cultured cells with the OD490 nm in plain culture media (without seeding of cells). Glucose production in the culture cells were obtained by normalizing the glucose concentration in culture media by cell viability in each well. At least 3 samples per each treatment were examined for the above analysis. Data are presented as Mean±SEM of those samples. Experiments were repeated at least twice.
The half maximal inhibitory concentration (IC50 values) of Compound #43 or metformin for the inhibition of glucose production were determined using the ED50 Plus v1.0 online software.

Pdk1/Akt/Foxo1 = experiment: Western blot of Pdk1/Akt/Foxo1 in AML-12 cells under simulated diabetic conditions (8-CPT/Dex); assay type: cell-based, mouse; conditions: for pFoxo1 levels / total Foxo1 protein levels: 300 ppb Compound #43 or 10 nM insulin, 6 hr
Experimental: AML-12 cells were used to investigate whether Compound #43 can regulate Pdk1/Akt/Foxo1 signaling molecules in the liver cells following induction with diabetic stimuli. Amplified AML-12 cells were seeded on 6-well (1×10^6 cells/well) plates and cultured in 10% FBS but ITS/Dex-free DMEM/F12 media for 24 hr. Then these cells were washed twice with PBS to remove residual sera, and serum-starved in plain DMEM/F12 media overnight. These serum-starved AML12 cells were treated with the diabetic stimuli 8-CPT (0.1 mM) and Dex (0.5 μM) in combination, without (Control group) or with 10 nM insulin or Compound #43 (300 ppb) in serum-free plain DMEM/F12 media for 60 minutes, 90 minutes, and 6 hr, respectively.
After the above described treatments, cultured HepG2 and AML-12 cells were rinsed twice with ice-cold PBS and lysed in ice-cold RIPA buffer containing complete proteinase and phosphatase inhibitors (Thermo-Fisher Scientific, Waltham, Mass.) on ice for 30 min. Cell lysates were collected using a cell scraper and transfer pipette, and then centrifuged at 12000×g for 30 min at 4° C. to remove the DNA pellet and obtain the protein extract. Protein levels in the supernatant of these cell lysates were determined using the Pierce Micro-BCA protein assay kit (Thermo Scientific-Piece Biotechnology, Rockford, Ill.) according to the manufacturer's protocol.
One hundred micrograms of liver tissue proteins or five micrograms of total proteins from control- and compound(s)-treated HepG2 or AML-12 cells were subjected to SDS-PAGE gel separation and then transferred to PVDF membranes, as described previously (Reddy et al. 2008 Science). Membranes were blocked in a phosphate-buffered saline (PBS) containing 5% (w/v) of bovine serum albumin (Sigma, St. Louis, Mo.) and incubated with specific primary antibodies followed by the incubation with HRP-conjugated anti-mouse or anti-rabbit secondary antibodies (1:5000 dilution, Cell Signaling Inc.). All primary antibodies except Gapdh (Li-COR, Lincoln, Nebr.) were purchased from Cell Signaling Inc. Positive signals on the membrane blots were detected using the Amersham's enhanced chemiluminescence Western Blotting Prime Detection reagents (GE Healthcare Lifescience, Pittsburgh, Pa.). Images of these luminescence signals on the membrane blots were captured using the LI-COR Odyssey Fc Image system (Lincoln, Nebr.). The same membrane blot was stripped and re-blotted with another antibody as described in the GE WB ECL-prime-detection protocol (GE healthcare Lifescience, Pittsburgh, Pa.). Protein band densities in the Western blots were determined using the NIH ImageJ software and then normalized by Gapdh or Actb/ACTB level in each sample. Data are presented as mean±SEM of three samples per each group.

[1] = target: T1, native insulin receptor (Insr) (Rattus norvegicus, UniProt P15127); experiment: In vitro cell-free phosphorylation of native insulin receptor; assay type: biochemical
T1 construct: native insulin receptor proteins, containing both alpha and beta subunits; purchased Sigma I9266; host or cells: purified from rat liver tissue
T1 sequence (P15127 764-1383 limits assumed): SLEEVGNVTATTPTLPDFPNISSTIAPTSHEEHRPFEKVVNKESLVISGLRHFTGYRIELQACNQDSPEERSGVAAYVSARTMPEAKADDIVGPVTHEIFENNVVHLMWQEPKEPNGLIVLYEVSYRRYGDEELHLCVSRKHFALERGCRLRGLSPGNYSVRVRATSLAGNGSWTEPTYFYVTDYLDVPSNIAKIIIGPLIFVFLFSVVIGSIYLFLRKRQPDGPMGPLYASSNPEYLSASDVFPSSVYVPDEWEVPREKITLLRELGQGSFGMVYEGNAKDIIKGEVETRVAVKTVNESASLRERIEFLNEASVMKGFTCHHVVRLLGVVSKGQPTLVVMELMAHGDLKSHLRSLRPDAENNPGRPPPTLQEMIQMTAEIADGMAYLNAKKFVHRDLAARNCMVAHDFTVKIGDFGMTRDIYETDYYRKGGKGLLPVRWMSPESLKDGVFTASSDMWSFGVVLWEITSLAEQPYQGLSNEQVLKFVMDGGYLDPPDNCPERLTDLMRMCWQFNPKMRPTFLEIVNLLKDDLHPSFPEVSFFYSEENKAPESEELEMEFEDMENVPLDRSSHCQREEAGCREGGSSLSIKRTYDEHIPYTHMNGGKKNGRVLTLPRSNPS
T1 sequence (P15127 27-759 partner limits assumed): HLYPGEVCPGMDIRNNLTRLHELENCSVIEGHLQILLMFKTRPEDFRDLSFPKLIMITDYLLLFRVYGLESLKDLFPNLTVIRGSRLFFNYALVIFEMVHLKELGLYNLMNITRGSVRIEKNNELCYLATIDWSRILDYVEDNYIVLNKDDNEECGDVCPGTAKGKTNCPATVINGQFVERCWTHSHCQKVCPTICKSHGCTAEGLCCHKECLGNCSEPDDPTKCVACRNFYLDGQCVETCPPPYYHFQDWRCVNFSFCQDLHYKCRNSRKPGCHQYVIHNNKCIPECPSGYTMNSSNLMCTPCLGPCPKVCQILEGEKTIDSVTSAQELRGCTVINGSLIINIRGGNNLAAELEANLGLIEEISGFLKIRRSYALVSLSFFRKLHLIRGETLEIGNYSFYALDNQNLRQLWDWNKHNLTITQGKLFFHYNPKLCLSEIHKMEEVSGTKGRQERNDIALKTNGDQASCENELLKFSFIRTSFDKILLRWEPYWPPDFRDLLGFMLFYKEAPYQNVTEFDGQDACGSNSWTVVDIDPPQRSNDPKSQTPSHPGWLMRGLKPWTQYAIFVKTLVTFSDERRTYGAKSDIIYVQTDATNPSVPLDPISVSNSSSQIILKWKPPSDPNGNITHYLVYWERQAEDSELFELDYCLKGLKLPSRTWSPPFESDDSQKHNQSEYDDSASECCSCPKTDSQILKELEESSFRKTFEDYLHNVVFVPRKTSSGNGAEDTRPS
Experimental: In vitro phosphorylation of Insr was performed according to Sigma's protocol with the following modifications. In brief, 10 μl of native insulin receptor solution containing 0.8 μl of original native INSR stock solution (Sigma, Catalog #I9266; diluted in enzyme dilution buffer containing 50 mM HEPES, pH 7.6, 150 mM NaCl and 0.1% Triton X-100) were incubated with equal volume of solutions containing insulin (Sigma), DMSO (Compound #43 solvent), Compound #43 or Compound #68 (diluted in 50 mM HEPES, pH 7.6 and 100 μg/ml bovine serum albumin) on ice for 30 min. Then 20 μl of 2× kinase buffer containing 0.2 mM ATP, 50 mM HEPES, pH 7.6, 50 mM MgCl2 and 4 mM MnCl2 were added to the above reactions, mixed and incubated on ice for 45 minutes.
Five microliters of the above reactions were immediately subjected to Western blot analysis using specific antibodies against phosphorylated tyrosine residues at 1146, 1150 and 1151 of Insrβ proteins (Cell Signaling Inc.). Protein band density was determined using the NIH Image J software.

Compound | reduction in glucose production compared with 100 nM insulin / CDE (HepG2 cells; 3.8 μM) | reduction in glucose production compared with 100 nM insulin / CDE (HepG2 cells; 3.8 μM, listed as compound #43) | reduction in glucose production compared with 100 nM insulin / CDE (HepG2 cells; 7.6 μM or higher (7.6, 15.2 and 30.4 μM)) | relative potency among tested compounds in inhibiting glucose production (HepG2 cells; FIG. 1 left-hand panel) | IC50 (HepG2 cells; Homo sapiens, HepG2, 48 hr, read-out: IC50 (inhibition of glucose production)) | effect on glucose production in HepG2 cells (HepG2 cells; tested doses, serum-free glucose production media, 48 hr (FIG. 1)) | pFoxo1 levels (Pdk1/Akt/Foxo1) | total Foxo1 protein levels (Pdk1/Akt/Foxo1) | phosphorylation of Pdk1, Akt and Foxo1 (Pdk1/Akt/Foxo1; 300 ppb, 60 minutes) | pFoxo1 protein levels (Pdk1/Akt/Foxo1; 300 ppb, 90 minutes) | pPdk1, pAkt, Akt and Foxo1 protein levels (Pdk1/Akt/Foxo1; 300 ppb, 90 minutes) | phosphorylation of Insrβ at Y1146/1150/1151 ([1]; doses of 1.9 and 3.8, cell-free (FIG. 26)) | reduction in glucose production (HepG2 cells; 10 nM insulin) | reduction in glucose production (HepG2 cells; 100 nM insulin) | phosphorylation of Pdk1, Akt and Foxo1 (Pdk1/Akt/Foxo1; 10 nM insulin, 60 and 90 minutes) | phosphorylation of Insrβ at Y1146/1150/1151 ([1]; insulin 0.5 μM, cell-free (FIG. 26))
C[Se]C[C@H]1O[C@@H](n2cnc3c(N)ncnc32)C(OC(C)=O)C1OC(C)=O (stereo partly drawn) [Compound #43, Adenosine, 5′-Se-methyl-5′-selino-, 2′,3′-diacetate] | as potent as the CDE combination product | comparable to that achieved when insulin (100 nM) was used | much more potent than 100 nM insulin; also recorded: more potent than CDE | the most potent | 15.5 µM | decrease in glucose levels in the culture media; also recorded: inhibited glucose production | significant increase in pFoxo1 levels | slight but significant decrease | significantly induced the phosphorylation of Pdk1, Akt and Foxo1 | significant increase in pFoxo1 protein levels | not significantly altered | significantly enhance the phosphorylation of Insrβ at Y1146/1150/1151 | – | – | – | –
insulin: insulin purchased from Sigma, positive control | – | – | – | – | – | – | increased pFoxo1 | slightly decreased total Foxo1 protein levels | – | – | – | – | 20% | 30% | enhanced the phosphorylation of Pdk1, Akt and Foxo1 | able to induce the phosphorylation of Insrβ at Y1146/1150/1151
